Experimental data: ChEMBL document CHEMBL5375955, “Discovery of New Fusobacterium nucleatum Inhibitors to Attenuate Migratory Capability of Colon Cancer Cells by the Drug Repositioning Strategy” (J Med Chem, 2023)
≈ marks a conversion by molar mass, not a printed value. Calls of active or inactive are those of the source. The calls are words filed in the database; no cut-off is given here.

Columns and labels:
Fusobacterium nucleatum [1] = test: Antibacterial activity against Fusobacterium nucleatum ATCC 23726 assessed as bacterial growth inhibition incubated for 48 hrs by broth dilution susceptibility test; format: functional
Fusobacterium nucleatum [2] = test: Antibiofilm activity against Fusobacterium nucleatum ATCC 23726 assessed as downregulation of tnaA gene expression measured after 48 hrs by RT-qPCR analysis; format: functional, organism-based
Akkermansia muciniphila = test: Antibacterial activity against Akkermansia muciniphila ATCC BAA-835 assessed as bacterial growth inhibition incubated for 48 hrs by broth dilution susceptibility test; format: functional
[3] = Drug metabolism assessed as NTR(unknown origin)-mediated metabolism at 10 mM incubated for 2 hrs in presence of NADH by LC-MS analysis; format: ADME; settings: bacteria, 10000 µM
Fusobacterium nucleatum [4] = test: Antibiofilm activity against Fusobacterium nucleatum ATCC 23726 assessed as inhibition of biofilm formation at 1 ug/ml incubated for 48 hrs by crystal violet staining based assay relative to control; format: functional
Staphylococcus aureus = test: Antibacterial activity against Staphylococcus aureus ATCC 6538 assessed as bacterial growth inhibition incubated for 48 hrs by broth dilution susceptibility test; format: functional
[5] = Acute toxicity in po dosed ICR mouse assessed as spleen damage at 1500 mg/kg, po measured after 7 days by H and E staining based analysis; format: organism-based; settings: in vivo, 168 h, time 7 day
[6] = Metabolic stability in mouse liver microsomes assessed as half life at 1 uM incubated for 45 mins in presence of NADPH by LC-MS/MS analysis; format: ADME, Microsome
Fusobacterium nucleatum [7] = test: Antibacterial activity against Fusobacterium nucleatum ATCC 23726 assessed as bacterial growth inhibition at 4 ug/ml incubated for 72 hrs by turbidimeter analysis; format: functional, organism-based; settings: dose 4.0 µg/ml
[8] = Clearance in Sprague-Dawley rat at 1 mg/kg, iv measured upto 24 hrs by LC-MS/MS analysis; format: ADME, organism-based; settings: in vivo
[9] = Cmax in Sprague-Dawley rat at 1 mg/kg, iv measured upto 24 hrs by LC-MS/MS analysis; format: ADME, organism-based; parameters: dose 1 mg/kg, time < 24 hrs, route iv; settings: in vivo
Fusobacterium nucleatum [10] = test: Antibiofilm activity against Fusobacterium nucleatum ATCC 23726 assessed as inhibition of biofilm formation incubated for 48 hrs by crystal violet staining based assay; format: functional, organism-based; settings: dose 0.5-16 µg/ml
[11] = Cytotoxicity against human L02 cells assessed as inhibition of cell growth incubated for 48 hrs by CCK-8 assay; format: toxicity, cell-based
Fusobacterium nucleatum [12] = test: Antibacterial activity against Fusobacterium nucleatum ATCC 23726 assessed as downregulation of NTR gene expression incubated for 48 hrs by RT-qPCR analysis; format: functional, organism-based
[13] = Acute toxicity in po dosed ICR mouse assessed as animal death measured after 7 days; format: organism-based; settings: in vivo, time 7 day
[14] = tested on: Salmonella enterica subsp. enterica serovar Paratyphi B; test: Antibacterial activity against Salmonella paratyphi B ATCC CMCC50094 assessed as bacterial growth inhibition incubated for 48 hrs by broth dilution susceptibility test; format: functional
[15] = Half life in Sprague-Dawley rat at 1 mg/kg, iv measured upto 24 hrs by LC-MS/MS analysis; format: ADME, organism-based; settings: in vivo
[16] = Cytotoxicity against HUVEC cells assessed as inhibition of cell growth incubated for 48 hrs by CCK-8 assay; format: toxicity, cell-based; settings: human
[17] = tested on: Peptostreptococcus anaerobius; test: Antibacterial activity against Peptostreptococcus anaerobius ATCC 27337 assessed as bacterial growth inhibition incubated for 48 hrs by broth dilution susceptibility test; format: functional
MC-38 [18] = test: Potency index, ratio of nitisinone IC50 to test compound IC50 for antiproliferative activity against mouse MC-38 cells assessed as inhibition of cell growth incubated for 48 hrs by CCK-8 assay; format: functional
[19] = Acute toxicity in po dosed ICR mouse assessed as lung damage at 1500 mg/kg, po measured after 7 days by H and E staining based analysis; format: organism-based; settings: in vivo, 168 h, time 7 day
[20] = tested on: Lactobacillus acidophilus; test: Antibacterial activity against Lactobacillus acidophilus ATCC CGMCC 1.577 assessed as bacterial growth inhibition incubated for 48 hrs by broth dilution susceptibility test; format: functional
Escherichia coli = test: Antibacterial activity against Escherichia coli […] assessed as bacterial growth inhibition incubated for 48 hrs by broth dilution susceptibility test; format: functional
Shigella flexneri = test: Antibacterial activity against Shigella flexneri ATCC 12022 assessed as bacterial growth inhibition incubated for 48 hrs by broth dilution susceptibility test; format: functional
Enterococcus faecalis = test: Antibacterial activity against Enterococcus faecalis ATCC 29212 assessed as bacterial growth inhibition incubated for 48 hrs by broth dilution susceptibility test; format: functional
[21] = Acute toxicity in po dosed ICR mouse assessed as liver damage at 1500 mg/kg, po measured after 7 days by H and E staining based analysis; format: organism-based; settings: in vivo, 168 h, time 7 day
Fusobacterium nucleatum [22] = test: Inhibition of Fusobacterium nucleatum ATCC 23726 stimulated mouse MC-38 cell migration assessed as reduction in number of migrating cells at 2 to 4 ug/ml incubated for 48 hrs by crystal violet staining based transwell assay; format: functional; settings: dose 2-4 µg/ml
[23] = Acute toxicity in po dosed ICR mouse assessed as kidney damage at 1500 mg/kg, po measured after 7 days by H and E staining based analysis; format: organism-based; settings: in vivo, 168 h, time 7 day
HCT-116 = test: Antiproliferative activity against human HCT-116 cells assessed as inhibition of cell growth incubated for 48 hrs by CCK-8 assay; format: functional, cell-based; settings: HCT-116, 48 h
[24] = Oral bioavailability in Sprague-Dawley rat at 20 mg/kg measured upto 24 hrs by LC-MS/MS analysis; format: ADME, organism-based; settings: in vivo
Fusobacterium nucleatum [25] = test: Antibacterial activity against Fusobacterium nucleatum ATCC 23726 assessed as bacterial growth inhibition incubated for 72 hrs by turbidimeter analysis; format: functional, organism-based
[26] = Acute toxicity in ICR mouse assessed as death rate at 2592 mg/kg, po measured after 7 days; format: organism-based; settings: in vivo, time 7 day, read-out: Activity
L02 = test: Downregulation of HPPD gene expression in human L02 cells at 10 to 50 uM incubated for 48 hrs by RT-qPCR analysis; format: functional, cell-based; settings: dose 10-50 µM
[27] = Acute toxicity in ICR mouse assessed as death rate at 2160 mg/kg, po measured after 7 days; format: organism-based; settings: in vivo, time 7 day, read-out: Activity
MC-38 [28] = test: Antiproliferative activity against mouse MC-38 cells assessed as inhibition of cell growth incubated for 48 hrs by CCK-8 assay; format: functional, cell-based; settings: MC-38, 48 h
[29] = Acute toxicity in po dosed ICR mouse assessed as heart damage at 1500 mg/kg, po measured after 7 days by H and E staining based analysis; format: organism-based; settings: in vivo, 168 h, time 7 day
[30] = Tmax in Sprague-Dawley rat at 20 mg/kg, po measured upto 24 hrs by LC-MS/MS analysis; format: ADME, organism-based; settings: in vivo

## O=C(NCc1ccc(Br)nc1)c1ccc([N+](=O)[O-])o1
Fusobacterium nucleatum [1]
  MIC50: 1 µg/mL (≈ 3.07 µM)
  MIC90: 4 µg/mL (≈ 12.3 µM)
Fusobacterium nucleatum [2]
  Activity: Dose-Dependent Effect
Akkermansia muciniphila
  MIC50: > 64 µg/mL
[3]
  Drug metabolism: Metabolite_Detected
Fusobacterium nucleatum [4]
  inhibition at 1 µg/mL: > 50%
Staphylococcus aureus
  MIC50: > 64 µg/mL
[5]
  Activity: Non-Toxic
[6]
  half-life at 1 µM: 25.1 min
Fusobacterium nucleatum [7]
  Activity: Active
[8]
  clearance: 601 mL/min/kg
[9]
  Cmax: 85 ng/mL
Fusobacterium nucleatum [10]
  inhibition: Dose-Dependent Effect
[11]
  IC50 at 48 h: 16 µM
Fusobacterium nucleatum [12]
  Activity: Dose-Dependent Effect
[13]
  LD50 at 168 h: 2400 mg/kg
[14]
  MIC50: > 64 µg/mL
[15]
  half-life: ~4.08 min
[16]
  IC50 at 48 h: 16 µM
[17]
  MIC50: 64 µg/mL (≈ 196 µM)
MC-38 [18]
  Ratio IC50: 8
[19]
  Activity: Non-Toxic
[20]
  MIC50: 64 µg/mL (≈ 196 µM)
Escherichia coli
  MIC50: > 64 µg/mL
Shigella flexneri
  MIC50: 64 µg/mL (≈ 196 µM)
Enterococcus faecalis
  MIC50: > 64 µg/mL
[21]
  Activity: Non-Toxic
Fusobacterium nucleatum [22]
  inhibition: Active
[23]
  Activity: Non-Toxic
HCT-116
  IC50: 32 µM
[24]
  bioavailability: 4.2%
Fusobacterium nucleatum [25]
  Activity: Dose-Dependent Effect
[26]
  mortality at 168 h: 70%
L02
  Activity: Active
[27]
  mortality at 168 h: 20%
MC-38 [28]
  IC50: 11 µM
[29]
  Activity: Non-Toxic
[30]
  Tmax: 84 min
